The assay can be described thus: Heparin-affinity chromatography (heparin binding). The note with it: heparin-sepharose; eluted in high-affinity fraction 0.7M to 2.0M NaCl. An excerpt:
The eluted proteins are then contacted with a heparin affinity resin. The ordinarily skilled artisan will readily realize that this step is best achieved in a column chromatography mode. Heparin affinity columns are commercially available from some of the same vendors mentioned above. In this step, the molecules of interest, both MPF-4 or CPF-4, bind to the heparin column and are eluted using an increasing linear salt gradient. The preferred salt is NaCl, and the portion of the gradient that is preferably collected is the 0.1-2.0M portion. The more highly preferred portion of the gradient to collect is the 0.7-2.0M portion.
The C4-pool was further fractionated by heparin affinity chromatography on a Econo-pac™ 5 ml heparin-sepharose cartridge (BioRad, Richmond, Calif. 94804). The bound proteins were eluted by a linear gradient of 0 to 2.0M NaCl in phosphate buffer saline (PBS) at a flow rate of 2.0 ml/min. The proteins that eluted from the column were pooled into three fractions: (1) non-heparin binding (flow through), (2) low-affinity heparin binding (0 to 0.7M NaCl), and (3) high-affinity heparin binding (0.7M to 2.0M NaCl) fractions.
The high affinity heparin binding fraction (3) (0.7M to 2.0M NaCl) was applied to a Vydac™ 0.46×10 cm C-4 HPLC column (The Marshall Co.; Worthington, Ohio 43085), previously equilibrated with 27% acetonitrile, 0.1% TFA. […]

Positions of bridges follow the written chain, without caps; N, C: chain ends. Chains are numbered I, II in the order given. No end group written: not given here.

Regarding “MPF-4: Naturally-occurring 54 amino acid protein (SEQ ID NO:1), homologous with the 54 C-terminal residues of PF-4, beginning with Ser-17 (SQVRPRHITSLEVIKAGPHCPTAQLIATLKNGRKICLDLQAPLYKKIIKKLLES)”, the heparin binding result was “bind heparin”.

B1: CPF-4: Proteolytically cleaved, non-reduced PF-4: 16 amino acid chain (SEQ ID NO:2) disulfide bonded to the 54 amino acid chain of MPF-4 (protein)
chain 1: EAEEDGDLQCLCVKTT
chain 2: SQVRPRHITSLEVIKAGPHCPTAQLIATLKNGRKICLDLQAPLYKKIIKKLLES
modifications: disulfide I:10-II:20, I:12-II:36; not fully specified
Regarding B1, the heparin binding result was “bind heparin”.

The values above are taken from patent US5935928A, “Modified platelet factor-4” (Eli Lilly and Company, priority 1996, dated 1999).
